The structures appear in SMILES notation. Read-outs that look alike come from different tables or passages of the source.

Two compounds from US12077503B2, “Substituted cyclic amides and their use as herbicides” (FMC CORPORATION, priority 2015, dated 2024) can be followed below.

Format in all cases: in vivo
The test system of assay [1] is barnyardgrass (Echinochloa crus-galli). As to the kind of experiment: Test A postemergence. The conditions noted are these: Echinochloa crus-galli, post-emergence, 240 h; for pest or weed control at 125 g/ha: 125 g ai/ha. The method in brief:
(§1)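 Preemergence soil spray on seeded pots or post-emergence spray on 1–2 leaf plants, in loam–sand blend. Greenhouse ~10 d. Visual rating 0–100 against untreated plants.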

Assay [2] has as its system pigweed (Amaranthus retroflexus). As to the kind of experiment: Test A postemergence. The following applies: Amaranthus retroflexus, post-emergence, 240 h; for pest or weed control at 125 g/ha: 125 g ai/ha. The essentials:
as §1

In assay [3] the test system is ryegrass, Italian (Italian ryegrass, Lolium multiflorum). The assay can be described thus: Test A postemergence. The conditions noted are these: Lolium multiflorum, post-emergence, 240 h; for pest or weed control at 125 g/ha: 125 g ai/ha. The method in brief:
as §1

For assay [4], the system named is giant foxtail (Setaria faberii). The assay can be described thus: Test A postemergence. The conditions noted are these: Setaria faberi, post-emergence, 240 h; for pest or weed control at 125 g/ha: 125 g ai/ha. The method in brief:
as §1

The subject of assay [5] is ragweed (common ragweed, Ambrosia elatior). As to the kind of experiment: Test A preemergence. The following applies: Ambrosia artemisiifolia, pre-emergence, 240 h; for pest or weed control at 125 g/ha: 125 g ai/ha. The method in brief: as §1
The subject of assay [6] is barnyardgrass (Echinochloa crus-galli). The assay can be described thus: Test A preemergence. The following applies: Echinochloa crus-galli, pre-emergence, 240 h; for pest or weed control at 125 g/ha: 125 g ai/ha. The essentials: as §1
Assay [7] concerns pigweed (Amaranthus retroflexus). The assay can be described thus: Test A preemergence. The following applies: Amaranthus retroflexus, pre-emergence, 240 h; for pest or weed control at 125 g/ha: 125 g ai/ha.
The subject of assay [8] is ryegrass, Italian (Italian ryegrass, Lolium multiflorum). The assay can be described thus: Test A preemergence. The following applies: Lolium multiflorum, pre-emergence, 240 h, read-out: Plant response rating, Ryegrass, Italian; for pest or weed control at 125 g/ha: 125 g ai/ha. The essentials:
as §1

Assay [9] relates to giant foxtail (Setaria faberii). The assay can be described thus: Test A preemergence. The conditions noted are these: Setaria faberi, pre-emergence, 240 h; for pest or weed control at 125 g/ha: 125 g ai/ha. The essentials:
as §1

The next assay concerns Kochia (Kochia scoparia). As to the kind of experiment: Test A preemergence. The conditions noted are these: Bassia scoparia, pre-emergence, 240 h; for pest or weed control at 125 g/ha: 125 g ai/ha. The method in brief: as §1
The next assay concerns rice (Oryra sativa). As to the kind of experiment: Test B flooded paddy test. The following applies: Oryza sativa, Flood, 250 g ai/ha, read-out: Rice plant response rating. The essentials: (§2)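 Visual ratings (0 none to 100 complete control) are relative to untreated plants, taken 13–15 d after treatment in a greenhouse. Test material went straight into floodwater standing 3 cm above the soil, kept constant, on plants at the 2-leaf stage.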

Assay [10] has as its system barnyardgrass (Echinochloa crus-galli). As to the kind of experiment: Test B flooded paddy test. The conditions noted are these: Echinochloa crus-galli, Flood, 250 g ai/ha, read-out: Barnyardgrass plant response rating. The essentials: as §2
Assay [11] has as its system ducksalad (Heteranthera limosa). As to the kind of experiment: Test B flooded paddy test. The conditions noted are these: Heteranthera limosa, Flood, 250 g ai/ha, read-out: Ducksalad plant response rating. The essentials:
as §2

Assay [12] relates to sedge, umbrella (small-flower umbrella sedge, Cyperus difformis). The assay can be described thus: Test B flooded paddy test. The following applies: Cyperus difformis, Flood, 250 g ai/ha. The essentials:
as §2

[13] abbreviates: scale of 0 to 100 where 0 is no effect and 100 is complete control.
Setting [14] is: 0 to 100 scale where 0 is no effect and 100 is complete control.

In the case of `CN1CC[C@@H](c2cccc(C(F)(F)F)c2)[C@H](C(=O)Nc2ccccc2F)C1=O` [Compound 794], the pest or weed control at 125 g/ha was 30% in assay [1] (postemergence, visual injury after approximately 10 d, 0 to 100 scale (0 no effect, 100 complete control), read-out: Plant response rating, Barnyardgrass); 0% in assay [2] (postemergence, visual injury after approximately 10 d, 0 to 100 scale (0 no effect, 100 complete control), read-out: Plant response rating, Pigweed); 0% in assay [3] (postemergence, visual injury after approximately 10 d, 0 to 100 scale (0 no effect, 100 complete control), read-out: Plant response rating, Ryegrass, Italian); 30% in [4] (postemergence, visual injury after approximately 10 d, 0 to 100 scale (0 no effect, 100 complete control), read-out: Plant response rating, Foxtail, Giant); 0% in assay [5] (preemergence, visual rating after approx. 10 d, 0 to 100 scale where 0 is no effect and 100 is complete control, read-out: Plant response rating, Ragweed); 90% in [6] (preemergence, visual rating after approx. 10 d, 0 to 100 scale where 0 is no effect and 100 is complete control, read-out: Plant response rating, Barnyardgrass). The pest or weed control at 125 g/ha was 0% in assay [7] (preemergence, visual rating after approx. 10 d, 0 to 100 scale where 0 is no effect and 100 is complete control, read-out: Plant response rating, Pigweed); 0% in assay [8] (preemergence, visual rating after approx. 10 d, 0 to 100 scale where 0 is no effect and 100 is complete control); 90% in [9] (preemergence, visual rating after approx. 10 d, 0 to 100 scale where 0 is no effect and 100 is complete control, read-out: Plant response rating, Foxtail, Giant); 0% in the assay with Kochia (Kochia scoparia) (preemergence, visual rating after approx. 10 d, 0 to 100 scale where 0 is no effect and 100 is complete control, read-out: Plant response rating, Kochia). For the same compound, the pest or weed control at 31 g/ha was 0% in assay [1] (Postemergence, 31 g ai/ha, visual injury after approx. 10 d, 0 to 100 scale, 0 no effect, 100 complete control, read-out: Plant response rating, Barnyardgrass); 0% in assay [2] (Postemergence, 31 g ai/ha, visual injury after approx. 10 d, 0 to 100 scale, 0 no effect, 100 complete control, read-out: Plant response rating, Pigweed); 0% in assay [3] (Postemergence, 31 g ai/ha, visual injury after approx. 10 d, 0 to 100 scale, 0 no effect, 100 complete control, read-out: Plant response rating, Ryegrass, Italian); 0% in [4] (Postemergence, 31 g ai/ha, visual injury after approx. 10 d, 0 to 100 scale, 0 no effect, 100 complete control, read-out: Plant response rating, Foxtail, Giant); 0% in [5] (Preemergence, 31 g ai/ha, 0 to 100 scale (0 no effect, 100 complete control), read-out: Plant response rating, Ragweed); 70% in assay [6] (Preemergence, 31 g ai/ha, 0 to 100 scale (0 no effect, 100 complete control), read-out: Plant response rating, Barnyardgrass). Also, the pest or weed control at 31 g/ha in assay [7] (Preemergence, 31 g ai/ha, 0 to 100 scale (0 no effect, 100 complete control), read-out: Plant response rating, Pigweed) is 0%; in [8] (Preemergence, 31 g ai/ha, 0 to 100 scale (0 no effect, 100 complete control)) it was 0%; in [9] (Preemergence, 31 g ai/ha, 0 to 100 scale (0 no effect, 100 complete control), read-out: Plant response rating, Foxtail, Giant), 30%; in the assay with Kochia (Kochia scoparia) (Preemergence, 31 g ai/ha, 0 to 100 scale (0 no effect, 100 complete control), read-out: Plant response rating, Kochia), 0%. The pest or weed control at 250 g/ha worked out at 20% in the assay with rice (Oryra sativa) (setting [13]); 40% in assay [10] (setting [13]); 30% in assay [11] (setting [13]); 0% in assay [12] (scale of 0 to 100 where 0 is no effect and 100 is complete control, read-out: Sedge, Umbrella plant response rating).

Regarding `CN1C[C@H](c2ccc3c(c2)CCO3)[C@@H](C(=O)Nc2ccc(F)c(F)c2F)C1=O` [Compound 1323], the pest or weed control at 125 g/ha in assay [1] (Postemergence, visual rating about 10 d after treatment, read-out: Barnyardgrass plant response rating (0 to 100 scale, 0 no effect, 100 complete control)) amounted to 90%; in [2] (Postemergence, visual rating about 10 d after treatment, read-out: Pigweed plant response rating (0 to 100 scale)), 0%; in [3] (Postemergence, visual rating about 10 d after treatment, read-out: Ryegrass, Italian plant response rating (0 to 100 scale)), 40%; in assay [4] (Postemergence, visual rating about 10 d after treatment, read-out: Foxtail, Giant plant response rating (0 to 100 scale)) it was 90%; in assay [5] (Preemergence, 0 to 100 scale (0 no effect, 100 complete control), read-out: Plant response rating, Ragweed) it was 0%; in [6] (Preemergence, 0 to 100 scale (0 no effect, 100 complete control), read-out: Plant response rating, Barnyardgrass) it was 90%. Moreover, the pest or weed control at 125 g/ha in assay [7] (Preemergence, 0 to 100 scale (0 no effect, 100 complete control), read-out: Plant response rating, Pigweed) was 0%; in assay [8] (Preemergence, 0 to 100 scale (0 no effect, 100 complete control)) it was 20%; in [9] (Preemergence, 0 to 100 scale (0 no effect, 100 complete control), read-out: Plant response rating, Foxtail, Giant), 90%; in the assay with Kochia (Kochia scoparia) (Preemergence, 0 to 100 scale (0 no effect, 100 complete control), read-out: Plant response rating, Kochia), 80%. The pest or weed control at 500 g/ha in assay [1] (Postemergence, 500 g ai/ha, visual injury, 0 to 100 scale (0 no effect, 100 complete control), approx. 10 d, read-out: Plant response rating, Barnyardgrass) is 90%; in assay [2] (Postemergence, 500 g ai/ha, visual injury, 0 to 100 scale (0 no effect, 100 complete control), approx. 10 d, read-out: Plant response rating, Pigweed), 0%; in assay [3] (Postemergence, 500 g ai/ha, visual injury, 0 to 100 scale (0 no effect, 100 complete control), approx. 10 d, read-out: Plant response rating, Ryegrass, Italian), 70%; in [4] (Postemergence, 500 g ai/ha, visual injury, 0 to 100 scale (0 no effect, 100 complete control), approx. 10 d, read-out: Plant response rating, Foxtail, Giant), 90%; in [5] (500 g ai/ha, preemergence, 0 to 100 scale where 0 is no effect and 100 is complete control, read-out: Ragweed plant response rating) it was 70%; in [6] (500 g ai/ha, preemergence, 0 to 100 scale where 0 is no effect and 100 is complete control, read-out: Barnyardgrass plant response rating), 90%. The pest or weed control at 500 g/ha in [7] (500 g ai/ha, preemergence, 0 to 100 scale where 0 is no effect and 100 is complete control, read-out: Pigweed plant response rating) came out at 40%; in [9] (500 g ai/ha, preemergence, 0 to 100 scale where 0 is no effect and 100 is complete control, read-out: Foxtail, Giant plant response rating), 90%; in the assay on Kochia (Kochia scoparia) (500 g ai/ha, preemergence, 0 to 100 scale where 0 is no effect and 100 is complete control, read-out: Kochia plant response rating), 90%. The pest or weed control at 250 g/ha is 10% with rice (Oryra sativa) (setting [14]); 90% in assay [10] (setting [14]); 85% in [11] (setting [14]); 0% in assay [12] (360 h, visually evaluated after 13 to 15 d, read-out: Plant response rating, Sedge, Umbrella (0 to 100 scale where 0 is no effect and 100 is complete control)).
